Laboratory results published in US5952321A, “Substituted azetidinones as anti-inflammatory and antidegenerative agents” (Merck & Co., Inc., priority 1996, dated 1999).
Like-named read-outs stand apart in the source and are kept apart here.

Columns and labels:
[1] = molecular target: T1, Human Polymorphonuclear Leukocyte Elastase (Homo sapiens, UniProt P08246); assay: Inhibition of human polymorphonuclear leukocyte elastase via hydrolysis of Boc-AAPAN or Boc-AAPVN; assay type: biochemical; conditions: second order rate constant for inactivation of the enzyme, read-out: Kobs /[I]
T1 sequence (P08246 30-267): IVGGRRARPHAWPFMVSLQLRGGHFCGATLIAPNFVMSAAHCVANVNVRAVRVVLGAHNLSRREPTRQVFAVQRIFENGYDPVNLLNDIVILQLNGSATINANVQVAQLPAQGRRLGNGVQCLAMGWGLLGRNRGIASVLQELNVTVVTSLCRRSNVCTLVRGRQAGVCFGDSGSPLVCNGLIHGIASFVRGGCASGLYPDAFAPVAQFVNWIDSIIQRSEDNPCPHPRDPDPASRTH
In short: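 Crude human PMN extract was added to 0.2 mM Boc-AAPAN or Boc-AAPVN substrate solution in 0.05 M TES pH 7.5 containing inhibitor in DMSO; extract volume was adjusted per batch activity. Hydrolysis was followed as ΔOD/min at 410 mμ, after a pre-check for spontaneous hydrolysis. Values are ID50 (μg/ml, 50% inhibition at 2 min), Ki (μM) or kobs/I.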

[2] = molecular target: T2, HUMAN PROTEINASE 3 (Homo sapiens, UniProt P24158); assay: Inhibition of PR3 catalyzed hydrolysis of MeO-Succ-AAPV-pNA; assay type: biochemical; conditions: Table IV; 45 mM TES pH 7.5, 450 mM NaCl, 10% DMSO; 0.2 mM MeO-succ-AAPV-pNA; read-out: SORC (second order rate constant, kobs /I)
T2 sequence (P24158 28-256): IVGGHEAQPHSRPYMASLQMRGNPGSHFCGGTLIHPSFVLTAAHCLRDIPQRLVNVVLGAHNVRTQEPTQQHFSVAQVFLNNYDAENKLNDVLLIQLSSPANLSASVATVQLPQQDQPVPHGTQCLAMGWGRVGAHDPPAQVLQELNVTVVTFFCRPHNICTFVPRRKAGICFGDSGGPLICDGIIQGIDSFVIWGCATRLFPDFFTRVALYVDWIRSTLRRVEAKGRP
Description: The PR3 catalyzed hydrolysis of MeO-Succ-AAPV-pNA was measured in a spectrophotometer monitoring absorbance at 410 nm. The enzymatic activity was determined in 45 mM TES at pH 7.5, 450 mM NaCl and 10% DMSO. The data were fit by non-linear regression to equation 1 to obtain the initial rates. The nonlinear progress curves observed with time dependent inhibitors were fit to equation 2 to obtain the first order rate constant Kobs. Results were expressed as kobs /I which is the second order rate constant (SORC) in per mole per second for inactivation of the enzyme.
Y=vs *x+[(vo -vs) (1-e^(-K.spsb.o^*x))/Ko
Kinetic constants for the inhibition of PR3 catalyzed hydrolysis of 0.2 mM MeO-succ-AAPV-pNA were determined by varying the concentration of inhibitor present in the reaction vessel.

kinact/KI ([1]; pH 7.5, Table I)	Compound	further results
–	CCC[C@@H](NC(=O)N1C(=O)C(CC)(CC)[C@@H]1Oc1ccc(C(C)N(C)CCOC)cc1)c1ccc2c(c1)OCO2 (stereo partly drawn)	kinact/KI ([1]; pH 7.5, Table III): 1.3e+06 M⁻¹ s⁻¹; kinact/KI [2]: 31000 M⁻¹ s⁻¹
515000 M⁻¹ s⁻¹	CCC[C@@H](NC(=O)N1C(=O)C(CC)(CC)[C@@H]1Oc1ccc([C@H](C)N(C)CCOC)cc1)c1ccc(C)cc1 [R4=Me; R5=CH2 CH2 OMe; R6=(S)--Me, (4S)-3,3-Diethyl-4-{(S)-4-[1-((2-methoxyethyl)methylamino)ethyl]phenoxy}-1-[(R)-α-n-propyl-(4-methyl)benzylaminocarbonyl]azetidin-2-one]	–
550000 M⁻¹ s⁻¹	CCC[C@@H](NC(=O)N1C(=O)C(CC)(CC)[C@@H]1Oc1ccc(C(CC)N(C)CCOC)cc1)c1ccc(C)cc1 (stereo partly drawn) [R4=Me; R5=CH2 CH2 OMe; R6=Et]	–
440000 M⁻¹ s⁻¹	CCC[C@@H](NC(=O)N1C(=O)C(CC)(CC)[C@@H]1Oc1ccc(CN(C)CCOC)cc1)c1ccc(C)cc1 [R4=Me; R5=CH2 CH2 OMe; R6=H, (4S)-3,3-Diethyl-1-[(R)-α-n-propyl-(4-methyl)benzylaminocarbonyl]-4-[(4-(2-methoxyethyl)methylaminomethyl)phenoxyl]azetidin-2-one]	–
600000 M⁻¹ s⁻¹	CCC[C@@H](NC(=O)N1C(=O)C(CC)(CC)[C@@H]1Oc1ccc(C(C)N(C)CCOC)cc1)c1ccc(C)cc1 (stereo partly drawn) [R4=Me; R5=CH2 CH2 OMe; R6=Me, (4S)-3,3-Diethyl-1-[(R)-α-n-propyl-(4-methyl)benzylaminocarbonyl]-4-[(R,S)-4-((1-(2-methoxyethyl)methylamino)ethyl)phenoxy]azetidin-2-one]	–
750000 M⁻¹ s⁻¹	CCC[C@@H](NC(=O)N1C(=O)C(CC)(CC)[C@@H]1Oc1ccc(CN(C)CCOc2ccccc2)cc1)c1ccc(C)cc1 [R4=Me; R5=CH2 CH2 OPh; R6=H]	–
1.05e+06 M⁻¹ s⁻¹	CCC[C@@H](NC(=O)N1C(=O)C(CC)(CC)[C@@H]1Oc1ccc(CN(C)CCSCC)cc1)c1ccc(C)cc1 [R4=Me; R5=CH2 CH2 SEt; R6=H, (4S)-3,3-diethyl-1-[(R)-α-n-propyl-(4-methyl)benzylaminocarbonyl]-4-[(4-((2-thioethyl)ethyl)methylaminomethyl)phenoxy]azetidin-2-one]	–
675000 M⁻¹ s⁻¹	CCC[C@@H](NC(=O)N1C(=O)C(CC)(CC)[C@@H]1Oc1ccc(CN(C)CCSC)cc1)c1ccc(C)cc1 [R4=Me; R5=CH2 CH2 SMe; R6=H]	–
1.5e+06 M⁻¹ s⁻¹	CCC[C@@H](NC(=O)N1C(=O)C(CC)(CC)[C@@H]1Oc1ccc(CN(C)CCS(=O)(=O)CC)cc1)c1ccc(C)cc1 [R4=Me; R5=CH2 CH2 SO2 Et; R6=H, (4S)-3,3-Diethyl-1-[(R)-α-n-propyl-(4-methyl)benzylaminocarbonyl]-4-[(4-((2-thioethyl)ethyl)methylaminomethyl)phenoxy]azetidin-2-one. S-dioxide.]	–
1.4e+06 M⁻¹ s⁻¹	CCC[C@@H](NC(=O)N1C(=O)C(CC)(CC)[C@@H]1Oc1ccc(CN(C)CC[S+]([O-])CC)cc1)c1ccc(C)cc1 (stereo partly drawn) [R4=Me; R5=CH2 CH2 SOEt; R6=H, (4S)-3,3-Diethyl-1-[(R)-α-n-propyl-(4-methyl)benzylaminocarbonyl]-4-[(4-((2-thioethyl)ethyl)methylaminomethyl)phenoxy]azetidin-2-one, S-oxide]	–
1e+06 M⁻¹ s⁻¹	CCC[C@@H](NC(=O)N1C(=O)C(CC)(CC)[C@@H]1Oc1ccc(CN(C)CC2CCCO2)cc1)c1ccc(C)cc1 (stereo partly drawn) [R4=Me; R5=CH2 CH(CH2 CH2 CH2 O); R6=H]	–
910000 M⁻¹ s⁻¹	CCC[C@@H](NC(=O)N1C(=O)C(CC)(CC)[C@@H]1Oc1ccc(CN(C)CC(=O)N(CCC)CCC)cc1)c1ccc(C)cc1 [R4=Me; R5=CH2 CON(n-Pr)2; R6=H]	–
1.22e+06 M⁻¹ s⁻¹	CCC[C@@H](NC(=O)N1C(=O)C(CC)(CC)[C@@H]1Oc1ccc(CN(C)C(C)COC)cc1)c1ccc(C)cc1 (stereo partly drawn) [R4=Me; R5=CH(Me)CH2 OMe; R6=H]	–
560000 M⁻¹ s⁻¹	CCC[C@@H](NC(=O)N1C(=O)C(CC)(CC)[C@@H]1Oc1ccc(CN(C)C)cc1)c1ccc(C)cc1 [R4=Me; R5=Me; R6=H]	–
–	CCC[C@@H](NC(=O)N1C(=O)C(CC)(CC)[C@@H]1Oc1ccc(CCN(C)C)cc1)c1ccc(C)cc1 [R4=Me; R5=Me; n=2, (4S)-3,3-Diethyl-1-[(R)-α-n-propyl-(4-methyl)benzylaminocarbonyl]-4-[(4-(2-dimethylamino)ethyl)phenoxy]azetidin-2-one]	kinact/KI ([1]; pH 7.5, Table II): 1.13e+06 M⁻¹ s⁻¹
–	CCC[C@@H](NC(=O)N1C(=O)C(CC)(CC)[C@@H]1Oc1ccc(CCCCN(C)C)cc1)c1ccc(C)cc1 [R4=Me; R5=Me; n=4]	kinact/KI ([1]; pH 7.5, Table II): 525000 M⁻¹ s⁻¹
800000 M⁻¹ s⁻¹	CCC[C@@H](NC(=O)N1C(=O)C(CC)(CC)[C@@H]1Oc1ccc(C(COC)N(C)C(C)C)cc1)c1ccc(C)cc1 (stereo partly drawn) [R4=Me; R5=i-Pr; R6=CH2 OMe]	–
850000 M⁻¹ s⁻¹	CCC[C@@H](NC(=O)N1C(=O)C(CC)(CC)[C@@H]1Oc1ccc(CN(C)C(C)C)cc1)c1ccc(C)cc1 [R4=Me; R5=i-Pr; R6=H]	–
500000 M⁻¹ s⁻¹	CCC[C@@H](NC(=O)N1C(=O)C(CC)(CC)[C@@H]1Oc1ccc(CN(CCOC)C(C)C)cc1)c1ccc(C)cc1 [R4=i-Pr; R5=CH2 CH2 OMe; R6=H]	–
1e+06 M⁻¹ s⁻¹	CCC[C@@H](NC(=O)N1C(=O)C(CC)(CC)[C@@H]1Oc1ccc(C(COC)N(CCC)CCC)cc1)c1ccc(C)cc1 (stereo partly drawn) [R4=n-Pr; R5=n-Pr; R6=CH2 OMe, 3,3-Diethyl-1-[(R)-α-(n-propyl)-4-(methyl)benzylaminocarbonyl]-4-(S)-[4-{1-(RS)-(di-n-propyl)-2-methoxyethyl}phenoxy]azetidin-2-one]	–
